# Assays:
# [1] = tested on: MDA-MB-231 cells; assay: Scratch-based motility assay; format: cell-based, human; conditions: 25 µg/mL, 24 h
# Experimental: (§1) To evaluate the two-dimensional motility of cancer cells, a wound-healing scratch assay was utilized, and the change in the scratch area was determined. On day 1, ~3 × 10^5 cells were seeded in 12-well plates, and, on day 2, a scratch was made on the cell layer, with the tip of a plastic pipette. Using a light microscope (40×), cell-free zones were imaged after 0 h and 24 h, and the alteration in their areas was quantified by Image J (Version 1.54 f).
# [2] = tested on: MDA-MB-436 cells; assay: Scratch-based motility assay; format: cell-based, human; conditions: 25 µg/mL, 24 h
# Experimental: as §1
# [3] = tested on: MDA-MB-231 cells; assay: Transwell invasion assay; format: cell-based, human; conditions: 25 µg/mL
# Experimental: (§2) The invasion capacity of cancer cells in response to ACPs was assessed using 8 µm pore transwell chambers (353182, Thermo Fisher) in a 12-well plate. The chambers were coated with 300 µL Matrigel (100 µg/mL) and filled with 500 µL of the serum-free medium. After washing the chamber three times with the serum-free medium, approximately 7 × 10^4 cells in 300 µL serum-free DMEM were placed in the upper chamber, while 800 µL medium was added to the lower chamber. Cells that migrated to the lower side of the membrane were fixed with methanol and stained with crystal violet. Five random images were captured with an inverted optical microscope at 100× magnification, and the average number of stained cells, representing the invasion capacity, was determined.
# [4] = tested on: MDA-MB-436 cells; assay: Transwell invasion assay; format: cell-based, human; conditions: 25 µg/mL
# Experimental: as §2
# [5] = tested on: Col1, ALP, OCN; assay: Western blot analysis of osteoblast development proteins; format: cell-based; conditions: Suppl. Figure S1d
# Experimental: Cells were lysed using a RIPA lysis buffer (sc-24948, Santa Cruz Biotech, Dallas, TX, USA) containing protease inhibitors (PIA32963, Thermo Fisher) and phosphatase inhibitors (2006643, Cal-biochem, Billerica, MA, USA). The proteins were separated on 10–15% SDS gels (Bio-Rad Laboratories, Hercules, CA, USA) and transferred to a polyvinylidene difluoride membrane (IPVH00010, Millipore, Billerica, MA, USA). The membrane was incubated with primary antibodies, followed by incubation with secondary antibodies (7074S/7076S, Cell Signaling, Danvers, MA, USA). The antibodies used included those against Snail, p-Src, Src, cleaved caspase 3, caspase 3, RANKL, Cdc42, Col1 and RhoA (Cell Signaling), ALP (Santa Cruz Biotech), OCN (Abcam, Boston, MA, USA), with β-actin (Sigma) as a control. The protein levels were detected using SuperSignal West Femto Maximum Sensitivity Substrate (PI34096, Thermo Fisher) and a luminescent image analyzer (LAS-3000, Fuji Film, Tokyo, Japan).
# [6] = tested on: MC3T3 osteoblasts; format: cell-based
# Experimental: (§3) Using 96-well plates with approximately 2000 cells per well, an MTT-based metabolic activity assay was performed. The cells were treated with agents and incubated for two days. On the fourth day, they were stained with 0.5 mg/mL thiazolyl blue tetrazolium bromide (M5655, Sigma). The optical density, used to assess metabolic activity, was measured at 562 nm. For the EdU-based proliferation activity assay, the cells were seeded in 96-well plates at about 1000 cells per well. A fluorescence-based cell proliferation kit (Click-iT™, EdU Alexa Fluor™ 488 Imaging Kit; Thermo Fisher, Waltham, MA, USA) was used according to the manufacturer’s instructions.
# [7] = tested on: Jurkat lymphocytes; format: cell-based
# Experimental: as §3
# [8] = tested on: 4T1.2 mammary tumor cells; assay: MTT-based cell viability assay; parameters: species or system mouse; conditions: 25 μg/mL
# Experimental: as §3
# [9] = tested on: peripheral blood mononuclear cells; format: cell-based, human
# Experimental: as §3
sequence,measurement,setting,value
TDYMVGSYGPR [P18],scratch-based motility,[1],effectively reduced
same,scratch-based mobility,[2],inhibited
same,transwell invasion,[3],decreased
same,transwell invasion,[4],inhibited
same,"expression of type I collagen (Col1), alkaline phosphatase (ALP), and osteocalcin (OCN)",[5],upregulated
same,MTT viability,[6],did not exhibit any significant effects
same,MTT viability,[7],did not exhibit any significant effects
same,MTT-based viability,[8],consistently reduced
same,MTT viability,[9],did not exhibit any significant effects

# Reference: paper PMC11202002, “P18: Novel Anticancer Peptide from Induced Tumor-Suppressing Cells Targeting Breast Cancer and Bone Metastasis” (Cancers, 2024)
